According to patent US20070021385A1, “Compositions and methods for wood preservation” (priority 2005, published 2007):

Experiments:
[1] = system: brown rots or white rots; experiment: Accelerated decay testing in the lab; conditions: confirmed by accelerated decay testing in the lab
From the text: Provided herein is an organic composition and method for use thereof in treatment of cellulosic material, more particularly wood. The composition comprises an azole or quaternary ammonium fungicide compound, and a pyrethroid insecticide. The composition imparts to the treated wood resistance to both fungi and insects. […] This has been confirmed by accelerated decay testing in the lab.

[2] = system: decay fungi; experiment: AWPA E7-01 field stake test, decay ratings, Gainesville, Florida; assay type: in vivo; design: Average Decay Ratings: scale not given here
Protocol: (§1) Preservative treating solutions were prepared by the mixing the concentrates in Example 1 with ethanol. The treated stakes were installed in Gainesville, Fla. for field performance evaluation following the procedure described in American Wood Preservers' Association (AWPA) Standard E7-01: “Standard Method of Evaluating Wood Preservatives by Field Tests with Stakes”.
(§2) Preservative treating solutions were prepared by the mixing the concentrates in Example 1 with toluene. The treated stakes were installed in Gainesville, Fla. for field performance evaluation following the procedure described in American Wood Preservers' Association (AWPA) Standard E7-01: “Standard Method of Evaluating Wood Preservatives by Field Tests with Stakes”.
Preservative treating solutions were prepared by the mixing the concentrates in Example 2 and 13. The treated stakes were installed in Gainesville, Fla. for field performance evaluation following the procedure described in American Wood Preservers' Association (AWPA) Standard E7-01: “Standard Method of Evaluating Wood Preservatives by Field Tests with Stakes”. […]
(§3) Preservative treating solutions were prepared by the mixing the concentrates in Example 1 with white spirits. The treated stakes were installed in Gainesville, Fla. for field performance evaluation following the procedure described in American Wood Preservers' Association (AWPA) Standard E7-01: “Standard Method of Evaluating Wood Preservatives by Field Tests with Stakes”.

[3] = system: termites; experiment: AWPA E7-01 field stake test, termite ratings, Gainesville, Florida; assay type: in vivo; design: Average Termite Ratings: scale not given here
Protocol: as §1, §2
Preservative treating solutions were prepared by the mixing the concentrates in Example 2 and 13. The treated stakes were installed in Gainesville, Fla. for field performance evaluation following the procedure described in American Wood Preservers' Association (AWPA) Standard E7-01: “Standard Method of Evaluating Wood Preservatives by Field Tests with Stakes”.
as §3

For CC1(C)C(C=C(Cl)Cl)C1C(=O)OCc1cccc(Oc2ccccc2)c1 (centres unmarked) [permethrin], the “fungicidal activity against brown rots or white rots” value (shortened to “fungicidal activity”) [1] was “do not have fungicidal activity”.

Cc1c(COC(=O)[C@@H]2[C@H](/C=C(\Cl)C(F)(F)F)C2(C)C)cccc1-c1ccccc1 (racemic) [bifenthrin] was tested, and the “fungicidal activity” value [1] was “do not have fungicidal activity”.

For CC(C)(C)C(O)(CCc1ccc(Cl)cc1)Cn1cncn1 (racemic) [Tebuconazole, (RS)-1-p-chlorophenyl-4,4-dimethyl-3-(1H -1,2,4-triazol-1-ylmethyl)pentan-3-ol], the “protection / bio-efficacy against fungal attack (in words)” value ([2]; different retention levels, text summary of Table 1A) was “certain degree of protection against fungal attack”, the “Average Decay Ratings” value ([2]; retention 0.32 kg/m^3, 12 months, Table 1A, Example 14 ethanol) was 8.2 and the “Average Decay Ratings” value ([2]; retention 0.32 kg/m^3, 12 months, Table 2A, Example 15 toluene) was 8.2. The “Average Decay Ratings” value ([2]; retention 0.32 kg/m^3, 12 months, Table 3A, Example 16 (concentrates of Examples 2 and 13)) was 8.2, the “Average Decay Ratings” value ([2]; retention 0.32 kg/m^3, 24 months, Table 1A, Example 14 ethanol) was 2.6 and the “Average Decay Ratings” value ([2]; retention 0.32 kg/m^3, 24 months, Table 2A, Example 15 toluene) was 2.6. For the same molecule, the “Average Decay Ratings” value ([2]; retention 0.32 kg/m^3, 24 months, Table 3A, Example 16 (concentrates of Examples 2 and 13)) was 2.6, the “Average Decay Ratings” value ([2]; retention 0.32 kg/m^3, 36 months, Table 1A, Example 14 ethanol) was 0.0 and the “Average Decay Ratings” value ([2]; retention 0.32 kg/m^3, 36 months, Table 2A, Example 15 toluene) was 0.0. For the same molecule, the “Average Decay Ratings” value ([2]; retention 0.32 kg/m^3, 36 months, Table 3A, Example 16 (concentrates of Examples 2 and 13)) was 0.0, the “Average Decay Ratings” value ([2]; retention 0.32 kg/m^3, 48 months, Table 1A, Example 14 ethanol) was 0.0 and the “Average Decay Ratings” value ([2]; retention 0.32 kg/m^3, 48 months, Table 2A, Example 15 toluene) was 0.0. The “Average Decay Ratings” value ([2]; retention 0.32 kg/m^3, 48 months, Table 3A, Example 16 (concentrates of Examples 2 and 13)) was 0.0, the “Average Decay Ratings” value ([2]; retention 0.48 kg/m^3, 12 months, Table 1A, Example 14 ethanol) was 5.8 and the “Average Decay Ratings” value ([2]; retention 0.48 kg/m^3, 12 months, Table 2A, Example 15 toluene) was 5.8. The “Average Decay Ratings” value ([2]; retention 0.48 kg/m^3, 12 months, Table 3A, Example 16 (concentrates of Examples 2 and 13)) was 5.8, the “Average Decay Ratings” value ([2]; retention 0.48 kg/m^3, 24 months, Table 1A, Example 14 ethanol) was 0.8 and the “Average Decay Ratings” value ([2]; retention 0.48 kg/m^3, 24 months, Table 2A, Example 15 toluene) was 0.8. For the same molecule, the “Average Decay Ratings” value ([2]; retention 0.48 kg/m^3, 24 months, Table 3A, Example 16 (concentrates of Examples 2 and 13)) was 0.8, the “Average Decay Ratings” value ([2]; retention 0.48 kg/m^3, 36 months, Table 1A, Example 14 ethanol) was 0.0 and the “Average Decay Ratings” value ([2]; retention 0.48 kg/m^3, 36 months, Table 2A, Example 15 toluene) was 0.0. For the same molecule, the “Average Decay Ratings” value ([2]; retention 0.48 kg/m^3, 36 months, Table 3A, Example 16 (concentrates of Examples 2 and 13)) was 0.0, the “Average Decay Ratings” value ([2]; retention 0.48 kg/m^3, 48 months, Table 1A, Example 14 ethanol) was 0.0 and the “Average Decay Ratings” value ([2]; retention 0.48 kg/m^3, 48 months, Table 2A, Example 15 toluene) was 0.0. The “Average Decay Ratings” value ([2]; retention 0.48 kg/m^3, 48 months, Table 3A, Example 16 (concentrates of Examples 2 and 13)) was 0.0, the “Average Decay Ratings” value ([2]; retention 0.64 kg/m^3, 12 months, Table 1A, Example 14 ethanol) was 8.7 and the “Average Decay Ratings” value ([2]; retention 0.64 kg/m^3, 12 months, Table 2A, Example 15 toluene) was 8.7. For the same molecule, the “Average Decay Ratings” value ([2]; retention 0.64 kg/m^3, 12 months, Table 3A, Example 16 (concentrates of Examples 2 and 13)) was 8.7, the “Average Decay Ratings” value ([2]; retention 0.64 kg/m^3, 24 months, Table 1A, Example 14 ethanol) was 1.2 and the “Average Decay Ratings” value ([2]; retention 0.64 kg/m^3, 24 months, Table 2A, Example 15 toluene) was 1.2. The “Average Decay Ratings” value ([2]; retention 0.64 kg/m^3, 24 months, Table 3A, Example 16 (concentrates of Examples 2 and 13)) was 1.2, the “Average Decay Ratings” value ([2]; retention 0.64 kg/m^3, 36 months, Table 1A, Example 14 ethanol) was 0.0 and the “Average Decay Ratings” value ([2]; retention 0.64 kg/m^3, 36 months, Table 2A, Example 15 toluene) was 0.0. The “Average Decay Ratings” value ([2]; retention 0.64 kg/m^3, 36 months, Table 3A, Example 16 (concentrates of Examples 2 and 13)) was 0.0, the “Average Decay Ratings” value ([2]; retention 0.64 kg/m^3, 48 months, Table 1A, Example 14 ethanol) was 0.0 and the “Average Decay Ratings” value ([2]; retention 0.64 kg/m^3, 48 months, Table 2A, Example 15 toluene) was 0.0. The “Average Decay Ratings” value ([2]; retention 0.64 kg/m^3, 48 months, Table 3A, Example 16 (concentrates of Examples 2 and 13)) was 0.0, the “insect / termite attack on treated wood (in words)” value ([3]; different retention levels, text summary of Table 1B) was “severe insect attack” and the “Average Termite Ratings” value ([3]; retention 0.32 kg/m^3, 12 months, Table 1B, Example 14 ethanol) was 4.2. For the same molecule, the “Average Termite Ratings” value ([3]; retention 0.32 kg/m^3, 12 months, Table 2B, Example 15 toluene) was 4.2, the “Average Termite Ratings” value ([3]; retention 0.32 kg/m^3, 12 months, Table 3B, Example 16 (concentrates of Examples 2 and 13)) was 4.2 and the “Average Termite Ratings” value ([3]; retention 0.32 kg/m^3, 24 months, Table 1B, Example 14 ethanol) was 0.6. For the same molecule, the “Average Termite Ratings” value ([3]; retention 0.32 kg/m^3, 24 months, Table 2B, Example 15 toluene) was 0.6, the “Average Termite Ratings” value ([3]; retention 0.32 kg/m^3, 24 months, Table 3B, Example 16 (concentrates of Examples 2 and 13)) was 0.6 and the “Average Termite Ratings” value ([3]; retention 0.32 kg/m^3, 36 months, Table 1B, Example 14 ethanol) was 0.0. The “Average Termite Ratings” value ([3]; retention 0.32 kg/m^3, 36 months, Table 2B, Example 15 toluene) was 0.0, the “Average Termite Ratings” value ([3]; retention 0.32 kg/m^3, 36 months, Table 3B, Example 16 (concentrates of Examples 2 and 13)) was 0.0 and the “Average Termite Ratings” value ([3]; retention 0.32 kg/m^3, 48 months, Table 1B, Example 14 ethanol) was 0.0. The “Average Termite Ratings” value ([3]; retention 0.32 kg/m^3, 48 months, Table 2B, Example 15 toluene) was 0.0, the “Average Termite Ratings” value ([3]; retention 0.32 kg/m^3, 48 months, Table 3B, Example 16 (concentrates of Examples 2 and 13)) was 0.0 and the “Average Termite Ratings” value ([3]; retention 0.48 kg/m^3, 12 months, Table 1B, Example 14 ethanol) was 4.5. The “Average Termite Ratings” value ([3]; retention 0.48 kg/m^3, 12 months, Table 2B, Example 15 toluene) was 4.5, the “Average Termite Ratings” value ([3]; retention 0.48 kg/m^3, 12 months, Table 3B, Example 16 (concentrates of Examples 2 and 13)) was 4.5 and the “Average Termite Ratings” value ([3]; retention 0.48 kg/m^3, 24 months, Table 1B, Example 14 ethanol) was 1.2. For the same molecule, the “Average Termite Ratings” value ([3]; retention 0.48 kg/m^3, 24 months, Table 2B, Example 15 toluene) was 1.2, the “Average Termite Ratings” value ([3]; retention 0.48 kg/m^3, 24 months, Table 3B, Example 16 (concentrates of Examples 2 and 13)) was 1.2 and the “Average Termite Ratings” value ([3]; retention 0.48 kg/m^3, 36 months, Table 1B, Example 14 ethanol) was 0.0. For the same molecule, the “Average Termite Ratings” value ([3]; retention 0.48 kg/m^3, 36 months, Table 2B, Example 15 toluene) was 0.0, the “Average Termite Ratings” value ([3]; retention 0.48 kg/m^3, 36 months, Table 3B, Example 16 (concentrates of Examples 2 and 13)) was 0.0 and the “Average Termite Ratings” value ([3]; retention 0.48 kg/m^3, 48 months, Table 1B, Example 14 ethanol) was 0.0. For the same molecule, the “Average Termite Ratings” value ([3]; retention 0.48 kg/m^3, 48 months, Table 2B, Example 15 toluene) was 0.0, the “Average Termite Ratings” value ([3]; retention 0.48 kg/m^3, 48 months, Table 3B, Example 16 (concentrates of Examples 2 and 13)) was 0.0 and the “Average Termite Ratings” value ([3]; retention 0.64 kg/m^3, 12 months, Table 1B, Example 14 ethanol) was 4.8. For the same molecule, the “Average Termite Ratings” value ([3]; retention 0.64 kg/m^3, 12 months, Table 2B, Example 15 toluene) was 4.8, the “Average Termite Ratings” value ([3]; retention 0.64 kg/m^3, 12 months, Table 3B, Example 16 (concentrates of Examples 2 and 13)) was 4.8 and the “Average Termite Ratings” value ([3]; retention 0.64 kg/m^3, 24 months, Table 1B, Example 14 ethanol) was 2.0. The “Average Termite Ratings” value ([3]; retention 0.64 kg/m^3, 24 months, Table 2B, Example 15 toluene) was 2.0, the “Average Termite Ratings” value ([3]; retention 0.64 kg/m^3, 24 months, Table 3B, Example 16 (concentrates of Examples 2 and 13)) was 2.0 and the “Average Termite Ratings” value ([3]; retention 0.64 kg/m^3, 36 months, Table 1B, Example 14 ethanol) was 0.0. For the same molecule, the “Average Termite Ratings” value ([3]; retention 0.64 kg/m^3, 36 months, Table 2B, Example 15 toluene) was 0.0, the “Average Termite Ratings” value ([3]; retention 0.64 kg/m^3, 36 months, Table 3B, Example 16 (concentrates of Examples 2 and 13)) was 0.0 and the “Average Termite Ratings” value ([3]; retention 0.64 kg/m^3, 48 months, Table 1B, Example 14 ethanol) was 0.0. For the same molecule, the “Average Termite Ratings” value ([3]; retention 0.64 kg/m^3, 48 months, Table 2B, Example 15 toluene) was 0.0 and the “Average Termite Ratings” value ([3]; retention 0.64 kg/m^3, 48 months, Table 3B, Example 16 (concentrates of Examples 2 and 13)) was 0.0.

For CC1(C)C(C=C(Cl)Cl)C1C(=O)OC(C#N)c1cccc(Oc2ccccc2)c1 (centres unmarked) [cypermethrin], the “fungicidal activity” value [1] was “do not have fungicidal activity”.
